Data published in US8906925B2, “Pyrido[4,3-B]indoles containing rigid moieties” (Medivation Technologies, Inc., priority 2008, dated 2014).
Values joined by “and” are separate entries in the source; they are usually repeats but may differ in a detail not shown here. Equal values may be shown once. Read-outs that look alike come from different tables or passages of the source.

Experiments:
[1] = target: human dopamine D2L receptor (Homo sapiens, UniProt P14416); experiment: Dopamine D2L radioligand binding ([3H]Spiperone); details: for inhibition at 1 µM: read-out: Inhibition of ligand binding, Dopamine D2L
Description: Non-specific binding was estimated in the presence of […] Haloperidol. Receptor proteins were filtered and washed, the filters were then counted to determine [^3H]Spiperone specifically bound. […] Biochemical assay results are presented as the percent inhibition of specific binding in Table 9.

[2] = target: T1, human recombinant serotonin (5-Hydroxytryptamine) 5-HT2C receptor (Homo sapiens, UniProt P28335); experiment: Serotonin 5-HT2C radioligand binding ([3H]Mesulergine); details: for inhibition at 0.1 µM / inhibition at 1 µM: read-out: Inhibition of ligand binding, Serotonin 5-HT2C (percent inhibition of specific binding)
T1 construct: expressed in transfected cells; host or cells: Chinese hamster ovary (CHO-K1) cells
T1 sequence (P28335 33-458): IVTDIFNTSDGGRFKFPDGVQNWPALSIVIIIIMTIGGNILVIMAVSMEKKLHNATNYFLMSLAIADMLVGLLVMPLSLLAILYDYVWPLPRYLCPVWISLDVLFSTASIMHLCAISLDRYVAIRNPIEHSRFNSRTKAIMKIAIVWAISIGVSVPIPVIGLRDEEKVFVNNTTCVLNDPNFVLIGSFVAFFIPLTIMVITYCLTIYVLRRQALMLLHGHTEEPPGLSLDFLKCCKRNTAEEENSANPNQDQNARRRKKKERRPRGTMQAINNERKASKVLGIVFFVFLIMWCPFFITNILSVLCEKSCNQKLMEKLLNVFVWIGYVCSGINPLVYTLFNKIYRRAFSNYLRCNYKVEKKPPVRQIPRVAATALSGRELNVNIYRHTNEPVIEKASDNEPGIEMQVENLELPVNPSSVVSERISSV
How it was run: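 Compounds tested at 1 μM or lower (1% DMSO vehicle) for displacement of 1 nM [3H]Mesulergine over 60 min at 25° C. Specific binding determined by filtration counting, with 1 μM Mianserin defining non-specific binding; values are percent inhibition.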

[3] = target: T2, human recombinant adrenergic α2B receptor (Homo sapiens, UniProt P18089); experiment: Adrenergic α2B radioligand binding ([3H]Rauwolscine)
T2 construct: expressed in transfected cells; host or cells: Chinese hamster ovary (CHO-K1) cells
T2 sequence (P18089 1-450): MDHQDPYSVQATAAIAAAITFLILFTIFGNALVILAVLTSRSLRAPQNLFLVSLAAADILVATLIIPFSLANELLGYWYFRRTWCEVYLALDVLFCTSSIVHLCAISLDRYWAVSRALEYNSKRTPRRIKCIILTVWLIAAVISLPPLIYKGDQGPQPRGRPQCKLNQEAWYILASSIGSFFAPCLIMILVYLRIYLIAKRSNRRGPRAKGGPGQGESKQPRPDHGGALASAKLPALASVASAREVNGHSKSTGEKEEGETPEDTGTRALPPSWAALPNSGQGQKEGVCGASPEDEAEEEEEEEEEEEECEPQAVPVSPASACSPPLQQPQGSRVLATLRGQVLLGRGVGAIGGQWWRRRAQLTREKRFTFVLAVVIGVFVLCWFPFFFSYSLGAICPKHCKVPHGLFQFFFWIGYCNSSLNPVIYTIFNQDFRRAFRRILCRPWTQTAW
Experimental: To evaluate in radioligand binding assays the activity of compounds of the invention, human recombinant adrenergic α2B receptor expressed in Chinese hamster ovary (CHO-K1) cells (Uhlen S et al. Eur J Pharmacol. 343(1):93, 1998) in a modified Tris-HCl buffer (50 mM Tris-HCl, pH 7.4, 12.5 mM MgCl2, 1 mM EDTA, 0.2% BSA) was used. Compounds of the invention were incubated with 2.5 nM [^3H]Rauwolscine for 60 min. at 25° C. Non-specific binding was estimated in the presence of 10 μM Prozosin. Receptor proteins were filtered and washed, the filters were then counted to determine [^3H]Rauwolscine specifically bound. Compounds were screened at 1 μM or lower, using 1% DMSO as vehicle. Biochemical assay results are presented as the percent inhibition of specific binding in Table 9.

histamine receptor H1 = histamine receptor H1 (Homo sapiens, UniProt P35367); experiment: Histamine H1 radioligand binding ([3H]Pyrilamine)
How it was run: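 Values are percent inhibition of specific [3H]pyrilamine (1.2 nM) binding with compounds at ≤1 μM (1% DMSO vehicle); 180 min incubation at 25 °C, pH 7.4 Tris buffer, on CHO-expressed human H1 receptor; 1 μM pyrilamine defined nonspecific binding, bound ligand counted after filtration.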

[4] = percent inhibition of specific binding, compound at 1 μM
[5] = percent inhibition of specific binding, compound at 1 μM, 1 µM
[6] = percent inhibition of specific binding, compound at 1 μM, read-out: Inhibition of ligand binding, Adrenergic α2B
[7] = read-out: Histamine Binding (1 μM) H1, percent inhibition of specific binding, 1 μM

human dopamine D2L receptor, sequence (P14416 whole entry): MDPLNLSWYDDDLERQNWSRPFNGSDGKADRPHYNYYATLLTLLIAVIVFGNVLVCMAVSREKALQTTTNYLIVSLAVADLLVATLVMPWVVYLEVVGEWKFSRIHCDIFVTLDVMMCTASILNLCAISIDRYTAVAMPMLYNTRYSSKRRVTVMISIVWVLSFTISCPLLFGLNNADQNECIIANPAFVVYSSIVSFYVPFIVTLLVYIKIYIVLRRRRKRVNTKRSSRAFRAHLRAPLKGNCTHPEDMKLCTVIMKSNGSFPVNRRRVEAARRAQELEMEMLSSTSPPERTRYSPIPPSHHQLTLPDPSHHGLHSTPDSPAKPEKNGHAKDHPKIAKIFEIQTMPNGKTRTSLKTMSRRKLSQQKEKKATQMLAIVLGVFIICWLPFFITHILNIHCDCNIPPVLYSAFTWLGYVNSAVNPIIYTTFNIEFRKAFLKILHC
histamine receptor H1, sequence (P35367 whole entry): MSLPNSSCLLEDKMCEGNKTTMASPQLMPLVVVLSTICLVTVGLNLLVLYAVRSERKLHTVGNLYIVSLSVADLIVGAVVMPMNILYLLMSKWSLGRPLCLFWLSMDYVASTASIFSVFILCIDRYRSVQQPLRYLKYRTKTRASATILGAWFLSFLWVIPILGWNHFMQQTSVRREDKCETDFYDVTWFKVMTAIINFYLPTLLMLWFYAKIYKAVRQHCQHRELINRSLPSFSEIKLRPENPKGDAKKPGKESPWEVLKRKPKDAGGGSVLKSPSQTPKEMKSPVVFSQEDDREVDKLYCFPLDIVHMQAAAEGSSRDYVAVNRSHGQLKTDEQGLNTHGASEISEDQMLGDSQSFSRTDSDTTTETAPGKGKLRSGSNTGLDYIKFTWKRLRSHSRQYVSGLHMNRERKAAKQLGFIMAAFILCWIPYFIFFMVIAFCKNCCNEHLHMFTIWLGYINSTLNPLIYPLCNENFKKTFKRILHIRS

| SMILES | inhibition at 1 µM [1, 4] [%] | inhibition at 1 µM ([2]; compound at 1 μM) [%] | inhibition at 1 µM [3, 6] [%] | inhibition at 1 µM (histamine receptor H1; [7]) [%] | also measured |
| --- | --- | --- | --- | --- | --- |
| Cc1ccc(C(O)Cn2c3c(c4cc(C)ccc42)CN(C)CC3)cc1 (racemic) [Compound 43, racemic-2-(1,2,3,4-tetrahydro-2,8-dimethylpyrido[4,3-b]indol-5-yl)-1-p-tolylethanol] | 65 | 96 | 108 | 81 | inhibition at 0.1 µM ([2]; compound at 0.1 μM): 81%; Inhibition of ligand binding, Adrenergic α2B [3, 5]: 102% |
| CCN1CCc2c(c3ccccc3n2CC(O)c2ccc(C)cc2)C1 (racemic) [Compound 44, racemic-2-(2-ethyl-1,2,3,4-tetrahydropyrido[4,3-b]indol-5-yl)-1-p-tolylethanol] | – | 36 | 94 | 54 | – |
| CCN1CCc2c(c3cc(C)ccc3n2CC(O)c2ccc(C)cc2)C1 (racemic) [Compound 51, racemic-2-(2-ethyl-1,2,3,4-tetrahydro-8-methylpyrido[4,3-b]indol-5-yl)-1-p-tolylethanol] | – | 84 | 118 | 100 | inhibition at 0.1 µM ([2]; compound at 0.1 μM): 43% |
| Cc1ccc(C(O)Cn2c3c(c4ccccc42)CN(C)CC3)cc1 (racemic) [Compound 53, racemic-2-(1,2,3,4-tetrahydro-2-methylpyrido[4,3-b]indol-5-yl)-1-p-tolylethanol] | – | 82 | 114 | 47 | – |
| CC(=Cn1c2c(c3cc(Cl)ccc31)CN(C)CC2)c1ccc(Cl)cc1Cl (stereo in doubt) [Compound 111, (Z)-8-chloro-5-(2-(2,4-dichlorophenyl)prop-1-enyl)-2,3,4,5-tetrahydro-2-methyl-1H-pyrido[4,3-b]indole] | – | 100 | 90 | – | Inhibition of ligand binding, Dopamine D2L [1, 5]: 27% and 29%; inhibition at 0.1 µM ([2]; compound at 0.1 μM): 95%; Histamine Binding (1 μM) H1, percent inhibition of specific binding (histamine receptor H1): 73% and 74% |
| Cc1ccc2[nH]c3c(c2c1)CN(C)CC3 [Compound 3, 2,8-Dimethyl-2,3,4,5-tetrahydro-1H-pyrido[4,3-b]indole] | – | 96 | – | – | inhibition at 1 µM [1]: 14%; inhibition at 1 µM ([3]; read-out: Inhibition of ligand binding, Adrenergic α2B): 91%; inhibition at 1 µM (histamine receptor H1; read-out: Histamine Binding (1 μM) H1, percent inhibition of specific binding): 30% |
| CN1CCc2c(c3cc(Cl)ccc3n2CC(C)(O)c2ccc(F)cc2)C1 (stereo not drawn) [Compound 45, 1-(8-chloro-1,2,3,4-tetrahydro-2-methylpyrido[4,3-b]indol-5-yl)-2-(4-fluorophenyl)propan-2-ol] | 34 | 95 | 109 | 65 | inhibition at 0.1 µM ([2]; compound at 0.1 μM): 88%; Histamine Binding (1 μM) H1, percent inhibition of specific binding (histamine receptor H1): 73% |
| Cc1ccc(C(C)(O)Cn2c3c(c4cc(Cl)ccc42)CN(C)CC3)cn1 (stereo not drawn) [Compound 47, 1-(8-chloro-1,2,3,4-tetrahydro-2-methylpyrido[4,3-b]indol-5-yl)-2-(6-methylpyridin-3-yl)propan-2-ol] | 7 | 81 | 106 | 33 | – |
| Cc1ccc2c(c1)c1c(n2CC(O)c2ccc(C)nc2)CCN(C)C1 (stereo not drawn) [Compound 48, 2-(2,8-dimethyl-3,4-dihydro-1H-pyrido[4,3-b]indol-5(2H)-yl)-1-(6-methylpyridin-3-yl)ethanol] | 8 | 67 | 100 | 93 | – |
| Cc1ccc2c(c1)c1c(n2CC(C)(O)c2ccc(C)nc2)CCN(C)C1 (stereo not drawn) [Compound 52, 1-(1,2,3,4-tetrahydro-2,8-dimethylpyrido[4,3-b]indol-5-yl)-2-(6-methylpyridin-3-yl)propan-2-ol] | 12 | 87 | 104 | 46 | – |
| Cc1ccc2c(c1)c1c(n2CC(O)c2cccnc2)CCN(C)C1 (stereo not drawn) [Compound 54, 2-(1,2,3,4-tetrahydro-2,8-dimethylpyrido[4,3-b]indol-5-yl)-1-(pyridin-3-yl)ethanol] | -4 | 22 | 103 | 68 | – |
| Cc1ccc2c(c1)c1c(n2CC(C)(O)c2ccc(F)cc2)CCN(C)C1 (stereo not drawn) [Compound 55, 2-(4-fluorophenyl)-1-(1,2,3,4-tetrahydro-2,8-dimethylpyrido[4,3-b]indol-5-yl)propan-2-ol] | 34 | 93 | 108 | 91 | – |
| CN1CCc2c(c3cc(Cl)ccc3n2CC(O)c2cccnc2)C1 (stereo not drawn) [Compound 56, 2-(8-chloro-1,2,3,4-tetrahydro-2-methylpyrido[4,3-b]indol-5-yl)-1-(pyridin-3-yl)ethanol] | 4 | 38 | 112 | 90 | – |
| COc1ccc(C(C)(O)Cn2c3c(c4cc(Cl)ccc42)CN(C)CC3)cc1 (stereo not drawn) [Compound 57, 1-(8-chloro-1,2,3,4-tetrahydro-2-methylpyrido[4,3-b]indol-5-yl)-2-(4-methoxyphenyl)propan-2-ol] | 22 | 86 | 108 | 41 | – |
| COc1ccc(C(C)(O)Cn2c3c(c4cc(Cl)ccc42)CN(C)CC3)cc1F (stereo not drawn) [Compound 59, 1-(8-chloro-1,2,3,4-tetrahydro-2-methylpyrido[4,3-b]indol-5-yl)-2-(3-fluoro-4-methoxyphenyl)propan-2-ol] | 17 | 99 | 95 | 63 | – |
| Cc1ccc2c(c1)c1c(n2CC(C)(O)c2cccnc2)CCN(C)C1 (stereo not drawn) [Compound 60, 1-(1,2,3,4-tetrahydro-2,8-dimethylpyrido[4,3-b]indol-5-yl)-2-(pyridin-3-yl)propan-2-ol] | 6 | 86 | 96 | 52 | – |
| CN1CCc2c(c3cc(Cl)ccc3n2CC(C)(O)c2cccnc2)C1 (stereo not drawn) [Compound 61, 1-(8-chloro-1,2,3,4-tetrahydro-2-methylpyrido[4,3-b]indol-5-yl)-2-(pyridin-3-yl)propan-2-ol] | 19 | 90 | 107 | 52 | – |
| C/C(=C\n1c2c(c3cc(C)ccc31)CN(C)CC2)c1ccncc1 [Compound 88, (E)-2,3,4,5-tetrahydro-2,8-dimethyl-5-(2-(pyridin-4-yl)prop-1-enyl)-1H-pyrido[4,3-b]indole] | – | 99 | 107 | – | Inhibition of ligand binding, Serotonin 5-HT2C (percent inhibition of specific binding) ([2]; compound at 0.1 μM, 0.1 µM): 74% and 96%; Inhibition of ligand binding, Serotonin 5-HT2C (percent inhibition of specific binding) ([2]; compound at 1 μM, 1 µM): 100% |
| Cc1ccc2c(c1)c1c(n2CC#Cc2ccccn2)CCN(C)C1 [Compound No. 500, 2,3,4,5-tetrahydro-2,8-dimethyl-5-(3-(pyridin-2-yl)prop-2-ynyl)-1H-pyrido[4,3-b]indole] | – | 77 | – | 70 | inhibition at 1 µM ([3]; compound at 1 μM, […] [3H]Rauwolscine, read-out: Inhibition of ligand binding, Adrenergic α2B (percent inhibition of specific binding)): 23% |
